Activity calls are given as the source filed them. The calls are words filed in the database; no cut-off is given here.
Experiments:
A549 [1] = experiment: Antiproliferative activity against human A549 cells assessed as inhibition of cell growth; assay type: functional, cell-based
[2] = Antiproliferative activity against human A549R cells assessed as inhibition of cell growth; assay type: functional, cell-based
NB-4 = experiment: Antiproliferative activity against human NB4 cells assessed as inhibition of cell growth; assay type: functional, cell-based
[3] = Cytotoxicity against HLF cells assessed as inhibition of cell growth; assay type: toxicity, cell-based; settings: human
[4] = Antiproliferative activity against mouse A261 cells assessed as inhibition of cell growth; assay type: functional, cell-based
[5] = biological target: T1, Alpha-ketoglutarate-dependent dioxygenase FTO (Homo sapiens, UniProt Q9C0B1); experiment: Inhibition of human FTO assessed as reduction in enzyme-mediated demethylation of m6A-ssDNA at 12.5 uM incubated for 2 hrs by PAGE analysis
Target sequence in this assay (Q9C0B1 whole entry, looked up): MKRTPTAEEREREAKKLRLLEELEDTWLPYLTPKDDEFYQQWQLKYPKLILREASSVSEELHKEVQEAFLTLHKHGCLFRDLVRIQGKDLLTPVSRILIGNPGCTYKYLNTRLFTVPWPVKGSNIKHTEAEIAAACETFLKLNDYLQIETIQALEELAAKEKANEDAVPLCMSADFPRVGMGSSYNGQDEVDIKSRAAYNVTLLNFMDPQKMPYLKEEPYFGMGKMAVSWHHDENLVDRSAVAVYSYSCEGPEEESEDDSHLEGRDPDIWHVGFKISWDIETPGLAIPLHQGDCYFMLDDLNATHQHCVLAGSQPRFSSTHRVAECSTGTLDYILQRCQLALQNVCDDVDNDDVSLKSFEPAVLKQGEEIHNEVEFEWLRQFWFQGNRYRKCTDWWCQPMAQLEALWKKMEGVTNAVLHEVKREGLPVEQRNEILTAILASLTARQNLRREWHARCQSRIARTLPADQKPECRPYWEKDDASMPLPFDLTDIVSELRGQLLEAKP

[6] = biological target: T1, Alpha-ketoglutarate-dependent dioxygenase FTO; experiment: Inhibition of human FTO assessed as reduction in enzyme-mediated demethylation of m6A-ssDNA incubated for 2 hrs by PAGE analysis
Target sequence in this assay (Q9C0B1 whole entry): as the sequence (Q9C0B1 whole entry, looked up) above

[7] = Selectivity index, ratio of IC50 for cytotoxicity against HLF cells to IC50 for antiproliferative activity against human A549 cells; assay type: cell-based; settings: HLF cells versus A549 cells, read-out: Ratio IC50
A549 [8] = experiment: Effect on FTO expression in human A549 cells at 3 to 9 uM incubated for 24 hrs by Western blot analysis; assay type: functional, cell-based; settings: dose 3-9 µM
[9] = biological target: T1, Alpha-ketoglutarate-dependent dioxygenase FTO; experiment: Inhibition of FTO in human A549 cells assessed as upregulation of gammaH2AX protein expression at 3 to 9 uM incubated for 24 hrs by Western blot analysis; assay type: cell-based; settings: dose 3-9 µM
Target sequence in this assay (Q9C0B1 whole entry, looked up): as above

[10] = biological target: T1, Alpha-ketoglutarate-dependent dioxygenase FTO; experiment: Inhibition of FTO in human A549 cells assessed as upregulation of p53 protein expression incubated for 24 hrs by Western blot analysis; assay type: cell-based; settings: dose 3-9 µM
Target sequence in this assay (Q9C0B1 whole entry, looked up): as above

A549 [11] = experiment: Induction of autophagy in human A549 cells assessed as upregulation of LC3-II protein expression at 3 to 9 uM incubated for 24 hrs by Western blot analysis; assay type: functional, cell-based; settings: dose 3-9 µM
A549 [12] = experiment: Induction of autophagy in human A549 cells assessed as downregulation of p62 protein expression at 3 to 9 uM incubated for 24 hrs by Western blot analysis; assay type: functional, cell-based; settings: dose 3-9 µM
A549 [13] = experiment: Antiproliferative activity against human A549 cells cultured as 3D spheroids assessed as decrease in multicellular tumor spheroid size at 20 uM treated for 5 days by live-cell phase-contrast microscopy; assay type: functional, cell-based; settings: time 5.0 day

| SMILES | IC50 (A549 [1]) | IC50 [2] | IC50 (NB-4) | IC50 [3] | IC50 [4] | inhibition [5] | IC50 [6] | selectivity ratio [7] | Activity (A549 [8]) | inhibition [9] | inhibition [10] | Activity (A549 [11]) | Activity (A549 [12]) | Activity (A549 [13]) |
| --- | --- | --- | --- | --- | --- | --- | --- | --- | --- | --- | --- | --- | --- | --- |
| C#CCN(C)CCN1C(=O)c2cccc3cc([N+](=O)[O-])cc(c23)C1=O | > 20 µM | > 20 µM | > 20 µM | > 20 µM | > 20 µM |  |  |  |  |  |  |  |  |  |
| CN(C)CCN1C(=O)c2cccc3cc(NC(=O)c4ccccn4)cc(c23)C1=O | 2.8 µM | 4.5 µM | 1.5 µM | 9.9 µM | 3.3 µM | Active | 4.5 µM | 3.5 | inactive | Active | Dose-Dependent Effect | Active | Active | Active |
| CN(C)CCN1C(=O)c2cccc3cc([N+](=O)[O-])cc(c23)C1=O [MITONAFIDE] | 1.5 µM | 1.8 µM | 3.4 µM | 2.8 µM | 2.8 µM |  | 34.8 µM | 1.9 |  |  |  |  |  |  |
| CN(C)CCN1C(=O)c2cccc3cc(N)cc(c23)C1=O [AMONAFIDE] | 4.3 µM | 9.5 µM | 5.7 µM | 8.8 µM | 9.2 µM |  |  |  |  |  |  |  |  |  |
| C=CC(=O)N(C)CCN1C(=O)c2cccc3cc([N+](=O)[O-])cc(c23)C1=O | > 20 µM | > 20 µM | > 20 µM | > 20 µM | > 20 µM |  |  |  |  |  |  |  |  |  |
| O=C(Nc1cc2c3c(cccc3c1)C(=O)N(CCN1C(=O)C=CC1=O)C2=O)c1ccccn1 | > 20 µM | > 20 µM | > 20 µM |  | > 20 µM |  |  |  |  |  |  |  |  |  |
| NCCN1C(=O)c2cccc3cc(NC(=O)c4ccccn4)cc(c23)C1=O | 5.2 µM | 7.3 µM | 8.4 µM |  | 4.1 µM |  |  |  |  |  |  |  |  |  |
| C=CC(=O)N(C)CCN1C(=O)c2cccc3cc(N)cc(c23)C1=O | > 20 µM | > 20 µM | > 20 µM | > 20 µM | > 20 µM |  |  |  |  |  |  |  |  |  |
| C#CCN(C)CCN1C(=O)c2cccc3cc(NC(=O)C=C)cc(c23)C1=O | > 20 µM | > 20 µM | 13.9 µM | > 20 µM | > 20 µM |  |  |  |  |  |  |  |  |  |
| CNCCN1C(=O)c2cccc3cc(NC(=O)c4ccccn4)cc(c23)C1=O | 2.9 µM | 7.2 µM | 12.9 µM |  | 3.5 µM |  |  |  |  |  |  |  |  |  |
| C#CCCC1(CCNCCN2C(=O)c3cccc4cc(NC(=O)c5ccccn5)cc(c34)C2=O)N=N1 | > 20 µM | > 20 µM | 10.6 µM |  | 8.5 µM |  |  |  |  |  |  |  |  |  |
| C#CCN(C)CCN1C(=O)c2cccc3cc(N)cc(c23)C1=O | > 20 µM | > 20 µM | > 20 µM | > 20 µM | > 20 µM |  |  |  |  |  |  |  |  |  |
| CNCCN1C(=O)c2cccc3cc([N+](=O)[O-])cc(c23)C1=O | 2.8 µM | 6.2 µM | 7 µM | 6.9 µM | 2.5 µM | Active | 5.7 µM | 2.5 | inactive | Active | Dose-Dependent Effect | Active | Active | Active |
| C#CCCCCNCCN1C(=O)c2cccc3cc(NC(=O)c4ccccn4)cc(c23)C1=O | 4.7 µM | 9.5 µM | 9.8 µM |  | 5.3 µM |  |  |  |  |  |  |  |  |  |

From ChEMBL document CHEMBL5370685, “Novel 1,8-Naphthalimide Derivatives As Antitumor Agents and Potent Demethylase Inhibitors” (ACS Med Chem Lett, 2023)
